Assays:
[1] = compound: COc1cccc2cc(-c3nc([C@H]4CC[C@H](C(=O)O)CC4)n4ncnc(N)c34)[nH]c12 [OSI-027] + Cc1nc(NC(=O)N2CCC[C@H]2C(N)=O)sc1-c1ccnc(C(C)(C)C(F)(F)F)c1 [Alpelisib] (partner 2 µM); assay: relative viability (nuclei count vs DMSO), 5 days (fraction); higher = more cells survive
How it was run: (§1)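 Cells from lung cancer lines were seeded into 1536-well plates and, one day later, dosed by pin tool. Treatments were either a single drug or a fixed dose of an anchor drug with five library-drug doses (not always all listed) in √10 steps. After 5 days, nuclei were stained in a one-step fixation (final 0.05% Triton X-100, 1% formaldehyde, 1 ug/ml Hoechst) and counted on 4× images, and relative viability is the treated-to-vehicle nuclei ratio, as the median of duplicate plates.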

[2] = compound: Cc1nc(NC(=O)N2CCC[C@H]2C(N)=O)sc1-c1ccnc(C(C)(C)C(F)(F)F)c1 [Alpelisib] + C[C@]1(O)C[C@@H](c2nc(-c3ccc4ccc(-c5ccccc5)nc4c3)c3c(N)nccn32)C1 [Linsitinib] (partner 1 µM); assay: as above
How it was run: as §1

Cell Line UMC-11 has a relative viability ([1]; first compound 0.01 µM) of 1.09, a relative viability ([1]; first compound 0.03162 µM) of 0.818 and a relative viability ([1]; first compound 0.1 µM) of 0.881. The relative viability ([1]; first compound 0.3162 µM) was 0.597, the relative viability ([1]; first compound 1 µM) was 0.49 and the relative viability ([2]; first compound 0.04 µM) was 0.953. The relative viability ([2]; first compound 0.1265 µM) was 1.03, the relative viability ([2]; first compound 0.4 µM) was 1.09 and the relative viability ([2]; first compound 1.265 µM) was 0.995. It also gave a relative viability ([2]; first compound 4 µM) of 0.955.

Reference: the supplement of paper PMC10307832
